The values that follow come from patent US4205164A, “Antibiotic A201C, A201D and A201E” (priority 1979, dated 1980).

The MIC is the least concentration at which growth counts as inhibited. What is called ED50 is the midpoint of the dose-response relation. Lower therefore signals greater potency. What is called pKa is the negative logarithm of the acid dissociation constant.

For one series, the system named is H. influ. R252. Nature of the series: MIC by standard agar-dilution test, H. influ. R252. The series is classed as cell-based.
In a further series the test system is Staph. epi. Epi1. The series is described as follows: MIC by standard agar-dilution test, Staph. epi. Epi1. It counts as cell-based. The source says:
(§1) The minimal inhibitory concentrations (MIC's) at which A201C, A201D, and A201E inhibit selected Gram positive bacteria, as determined by standard agar-dilution tests, are summarized in Table I: […]

For the next series, the system named is Staph. epi. Epi2. The series is described as follows: MIC by standard agar-dilution test, Staph. epi. Epi2. The series is classed as cell-based.
Text: as §1

A further series has as its system Streptococcus 9960. Nature of the series: MIC by standard agar-dilution test, Streptococcus 9960. It counts as cell-based. Conditions: Streptococcus 9960, agar dilution.
Text: as §1
On the technique in general: Agar dilution tests growth on a series of plates holding different concentrations.

In a further series the test system is Staph. aureus X1.1. The series is described as follows: MIC by standard agar-dilution test, Staph. aureus X1.1. The series is classed as cell-based. Conditions: Staphylococcus aureus; Staph. aureus X1.1, agar dilution.
Text: as §1

The next series concerns Streptococcus C203. The series is described as follows: MIC by standard agar-dilution test, Streptococcus C203. The series is classed as cell-based.
Text: as §1

In another series the test system is H. influ. HOLT. The series is described as follows: MIC by standard agar-dilution test, H. influ. HOLT. It counts as cell-based.
Another series deals with Streptococcus X66. The series is described as follows: MIC by standard agar-dilution test, Streptococcus X66. It counts as cell-based.
Text: as §1

For a further series, the system named is Staph. aureus V41. Nature of the series: MIC by standard agar-dilution test, Staph. aureus V41. The series is classed as cell-based. Conditions: Staphylococcus aureus.
Text: as §1

In the next series the test system is Streptococcus Park. Nature of the series: MIC by standard agar-dilution test, Streptococcus Park. It counts as cell-based.
Text: as §1

The next series has as its system Staph. aureus S13E. Nature of the series: MIC by standard agar-dilution test, Staph. aureus S13E. The series is classed as cell-based. Conditions: Staphylococcus aureus.
Text: as §1

The subject of the next series is Staph. aureus X400. The series is described as follows: MIC by standard agar-dilution test, Staph. aureus X400. It counts as cell-based. Particulars: Staphylococcus aureus.
Text: as §1

Series [1] deals with Streptococcus pyogenes C203. The series is described as follows: Therapy of mouse infection, Streptococcus pyogenes C203. It counts as in vivo, Mice. Particulars: 1 and 5 hour post infection, 7 days. As to the method: (§2) One hour and five hours later the mice are given a subcutaneous (S.C.) dose of the compound in 60% propylene glycol. The compound is administered at five different dosage levels (eight mice for each dosage level). The animals are observed for 7 days and the number of survivors is noted. For each organism, the ED50 value is calculated using the method of W. Wick, J. Bacteriol. 81, 233 (1961).
(§3) ^b Compound administered subcutaneously (S.C.), 1 and 5 hour post

A further series can be described thus: pKa. It counts as physicochemical. Particulars: 66% dmf-h2o.
Series [2] has as its system Staphylococcus aureus 3055. The series is described as follows: Therapy of mouse infection, Staphylococcus aureus 3055. It counts as in vivo, Mice. Particulars: 1 and 5 hour post infection, 7 days. As to the method:
as §2, §3

For series [3], the system named is pathogenic microorganisms, particularly Gram positive bacteria. Nature of the series: Inhibition of growth of pathogenic microorganisms (general statement). It counts as cell-based.
For series [4], the system named is experimental bacterial infections. The series is described as follows: In vivo therapeutic activity against experimental bacterial infections (general statement). Particulars: mice. As to the method: as §2
The subject of series [5] is Diplococcus pneumoniae Park I. The series is described as follows: Therapy of mouse infection, Diplococcus pneumoniae Park I. The series is classed as in vivo, Mice. Conditions: 1 and 5 hour post infection, 7 days. As to the method:
as §2, §3

The mark [6] stands for this setting: H. influ. R252, agar dilution, read-out: MIC.

Molecules are shown by their SMILES. Values after ≈ are worked out from the molar mass of the structure shown. Like-named read-outs stand apart in the source and are kept apart here. A value given as a limit tells only on which side of the number the result lay.

Take `COC(COC1OC(C)C(OC)C(OC)C1O)=C1OC(Oc2ccc(C=C(C)C(=O)NC3C(CO)OC(n4cnc5c(N(C)C)ncnc54)C3O)cc2)C(O)C1O` (stereo not drawn) [Factor A201A, reference compound]: the MIC in the series with H. influ. R252 (setting [6]) was found to be 4 µg/mL (≈ 4.98 µM); against Staph. epi. Epi1, 16 µg/mL (≈ 19.9 µM); in the series on Staph. epi. Epi2, 8 µg/mL (≈ 9.96 µM); in the series with Streptococcus 9960 it was 64 µg/mL (≈ 79.7 µM); in the series with Staph. aureus X1.1, 1 µg/mL (≈ 1.25 µM); in the series with Streptococcus C203, 0.25 µg/mL (≈ 0.311 µM). In addition, the MIC in the series on H. influ. HOLT was determined as 8 µg/mL (≈ 9.96 µM); in the series with Streptococcus X66, 8 µg/mL (≈ 9.96 µM); in the series with Staph. aureus V41 (Staph. aureus V41, agar dilution, read-out: MIC) it was 16 µg/mL (≈ 19.9 µM); in the series on Streptococcus Park it was 4 µg/mL (≈ 4.98 µM); with Staph. aureus S13E, 1 µg/mL (≈ 1.25 µM); in the series on Staph. aureus X400, 1 µg/mL (≈ 1.25 µM).

Take `COC(COC1OC(C)C(OC)C(OC)C1O)=C1OC(Oc2ccc(C=C(C)C(=O)NC3C(CO)OC(n4cnc5c(N(C)C)ncnc54)C3O)cc2O)C(O)C1O` (stereo not drawn) [Factor C]: the “Survivors/Total No. of Mice” value is listed as 0/8 in series [1] (2.19 mg/kg S.C.); 4/8 in [1] (4.375 mg/kg S.C.); 6/8 in [1] (8.75 mg/kg S.C.); 8/8 in series [1] (17.5 mg/kg S.C.); 8/8 in [1] (35 mg/kg S.C.); 0/8 in series [2] (2.19 mg/kg S.C.). Besides, the “Survivors/Total No. of Mice” value in series [2] (4.375 mg/kg S.C.) is on record as 1/8; in [2] (8.75 mg/kg S.C.), 3/8; in series [2] (17.5 mg/kg S.C.), 0/8; in series [2] (35 mg/kg S.C.), 5/8; in series [5] (4.378 mg/kg S.C.), 0/8; in series [5] (8.75 mg/kg S.C.), 0/8. Besides, the “Survivors/Total No. of Mice” value in [5] (17.5 mg/kg S.C.), in series [5] (35 mg/kg S.C.) and in [5] (70 mg/kg S.C.) was 0/8 each time. In addition, the 50% effective dose (ED50) in series [1] (Streptococcus pyogenes, C203, sc, 168 h, S.C., IP infection 243 LD50's) was 5.3 mg/kg; in series [2] (Staphylococcus aureus, 3055, sc, 168 h, S.C., IP infection 260 LD50's) it was 26 mg/kg; in [5] (Streptococcus pneumoniae, sc, 168 h, S.C., IP infection 260 LD50's), more than 70 mg/kg. Moreover, the MIC against H. influ. R252 was 32 µg/mL (≈ 39.1 µM); against Staph. epi. Epi1, 128 µg/mL (≈ 156 µM); in the series on Staph. epi. Epi2, 64 µg/mL (≈ 78.2 µM); with Streptococcus 9960, more than 128 µg/mL; with Staph. aureus X1.1 it was 8 µg/mL (≈ 9.77 µM); with Streptococcus C203, 1 µg/mL (≈ 1.22 µM). Further, the MIC was 132 µg/mL (≈ 161 µM) with H. influ. HOLT; 64 µg/mL (≈ 78.2 µM) against Streptococcus X66; more than 128 µg/mL against Staph. aureus V41 (V41); 8 µg/mL (≈ 9.77 µM) in the series with Streptococcus Park; 8 µg/mL (≈ 9.77 µM) against Staph. aureus S13E; 8 µg/mL (≈ 9.77 µM) against Staph. aureus X400. The compound further showed a pKa in the series “pKa” of 11.4. For the same compound, the “inhibition of growth of pathogenic microorganisms” value (“inhibition” for short) in [3] is “inhibit the growth of certain pathogenic microorganisms, particularly Gram positive bacteria”. The “in vivo therapeutic activity against experimental bacterial infections” value in series [4] (listed as A201C) was “has shown in vivo therapeutic activity against experimental bacterial infections”; in [4] (listed as Formula II), “has shown in vivo therapeutic activity against experimental bacterial infections in mice”.

In the case of `COC(CO)=C1OC(Oc2ccc(C=C(C)C(=O)NC3C(CO)OC(n4cnc5c(N(C)C)ncnc54)C3O)cc2)C(O)C1O` (stereo not drawn) [Factor D], the MIC in the series on H. influ. R252 (setting [6]) is 64 µg/mL (≈ 102 µM); against Staph. epi. Epi1, 128 µg/mL (≈ 204 µM); against Staph. epi. Epi2 it was 128 µg/mL (≈ 204 µM); in the series on Streptococcus 9960, more than 128 µg/mL; against Staph. aureus X1.1 it was 32 µg/mL (≈ 50.9 µM); against Streptococcus C203, 8 µg/mL (≈ 12.7 µM). Also, the minimal inhibitory concentration (MIC) in the series with H. influ. HOLT is 128 µg/mL (≈ 204 µM); in the series on Streptococcus X66, more than 128 µg/mL; in the series on Staph. aureus V41 (V41), more than 128 µg/mL; against Streptococcus Park, 64 µg/mL (≈ 102 µM); with Staph. aureus S13E, 32 µg/mL (≈ 50.9 µM); against Staph. aureus X400, 64 µg/mL (≈ 102 µM). The “inhibition” value in series [3] is listed as “inhibit the growth of certain pathogenic microorganisms, particularly Gram positive bacteria”.

For `COC(COC1OC(C)C(OC)C(OC)C1O)C1OC(Oc2ccc(C=C(C)C(=O)NC3C(CO)OC(n4cnc5c(N(C)C)ncnc54)C3O)cc2)C(O)C1O` (stereo not drawn) [Factor E], the MIC with H. influ. R252 (setting [6]) was 32 µg/mL (≈ 39.8 µM); against Staph. epi. Epi1, 64 µg/mL (≈ 79.5 µM); against Staph. epi. Epi2, 64 µg/mL (≈ 79.5 µM); in the series with Streptococcus 9960, more than 128 µg/mL; against Staph. aureus X1.1 it was 16 µg/mL (≈ 19.9 µM); in the series with Streptococcus C203, 1 µg/mL (≈ 1.24 µM). Moreover, the minimal inhibitory concentration (MIC) in the series on H. influ. HOLT amounted to 32 µg/mL (≈ 39.8 µM); in the series with Streptococcus X66 it was 64 µg/mL (≈ 79.5 µM); against Staph. aureus V41 (V41) it was 128 µg/mL (≈ 159 µM); in the series on Streptococcus Park it was 16 µg/mL (≈ 19.9 µM); in the series on Staph. aureus S13E, 16 µg/mL (≈ 19.9 µM); in the series on Staph. aureus X400 it was 16 µg/mL (≈ 19.9 µM). The “inhibition” value in [3] is “inhibit the growth of certain pathogenic microorganisms, particularly Gram positive bacteria”.
